Test: Storage stability of clopidogrel solution at room temperature and at 40°
Assay type: physicochemical

ability of solvent to form a stable solution of clopidogrel (D5W (5% dextrose in water)): not capable of forming a stable solution | ability of solvent to form a stable solution of clopidogrel (D50W (50% dextrose in water), room temperature and 40°): capable of forming a stable solution
SMILES: COC(=O)[C@H](c1ccccc1Cl)N1CCc2sccc2C1 [clopidogrel]
